Experimental data from a melting point compilation (Tetko et al.; mined from patent text by program, amines drawn as free bases though some values may be those of a salt).

Row | melting point [°C] | Structure (SMILES)
1 | 77 to 79 | CCc1cccc(C(C)C)c1N1C(=O)CN(CC)C1=S
2 | 173 to 175 | COc1ccc(C(=O)N2c3ccccc3C(Nc3ccc(Br)cc3)CC2C)cc1OC (configuration not stated)
3 | 144 to 146 | CC(C)Oc1cncc(Br)c1
4 | 180 to 183 | NC(=NO)c1ccc(-c2ccc(N)cc2)o1
5 | 148 | CS(=O)(=O)NC(=O)C1(CCCCCCCCCCCCC2(C(=O)NS(C)(=O)=O)CC2)CC1
6 | 307 to 309 | Oc1ccc(-c2nc3cccc(O)c3[nH]2)cc1C12CC3CC(CC(C3)C1)C2
7 | 236 to 238 | Fc1ccccc1Cn1cnc2c(Nn3ccc4ccccc43)ncnc21
8 | 112 to 113 | CC(C)CC(COc1ccc(-c2ccc(C#N)cc2)cc1)N(O)C=O (configuration not stated)
9 | 86 to 88 | CCC(=O)Nc1nc(CN2CCC(OC(c3ccccc3)c3ccccc3)CC2)cs1
10 | > 300 | O=c1[nH]c(=O)c2cc(Oc3ccc(F)cc3F)ncc2[nH]1
11 | 193 to 195 | Cc1cc2c(cc1C)-n1ccnc1C=C(c1ccc(-n3c(C)nc4cnccc43)cc1)N2
12 | 286 | CN1CCN(c2cc3c(cc2Cl)c(=O)c(C(=O)O)cn3C)CC1
13 | 159 to 160 | CCCCc1nc2c(N)nc3ccccc3c2n1NCc1ccccc1
14 | 235 to 237 | Oc1cccc(Cc2cnc3c(-c4cc(-c5ccccc5)cs4)cnn3c2O)c1
15 | 166 to 168 | Cc1cc(C)nc(NC(=O)NS(=O)(=O)c2ccccc2C(=O)N(C)C)c1
16 | 160 | Cc1ccc(S(=O)(=O)N2[C@@H](c3ncn(C)n3)CC[C@H]2c2ccc(F)cc2)cc1 (racemic)
17 | 118 to 120 | CN(C)C=Nc1c(Cl)cc(NCc2ccc(N(C)C)cc2F)cc1Cl
18 | 82 to 84 | CCOC(=O)c1c(C(F)(F)F)nc(C)c(-c2ccccc2)c1O
19 | 174 to 175 | Cc1cc(=O)n(-c2c(Cl)cc(C(F)(F)F)cc2Cl)[nH]1
20 | 110 | O=C(O)CN(C(=O)OCc1ccccc1)C1CCCC1
21 | 181 to 182 | CNC(=O)N(N)c1nnc(C(F)(F)F)s1
22 | > 260 | O=C1CCC(N2C(=O)c3cccc(CNC(=O)c4cnccn4)c3C2=O)C(=O)N1 (configuration not stated)
23 | 178 to 179 | Cc1cc2c(-c3ccccc3)c(C=O)n(C)c(=O)c2cc1C
24 | 204 to 206 | CN1CCN(C(=O)c2ccc(-c3cnc4c(c3)N(Cc3cc(F)ccc3F)C(=O)C(C)(C)N4)cc2)CC1
25 | 113 to 116 | CCOP(=O)(CC(=O)Nc1cc2c(Nc3ccc(OCc4ccccn4)c(Cl)c3)ncnc2cn1)OCC

Row | melting point [°C] | Structure (SMILES)
26 | 187 to 188 | Oc1cc(Cl)c(N2CCOCC2)cc1Oc1ccc(Cl)cc1Cl
27 | 184 | O=C(NC(=O)N1C(=O)Cc2ccccc21)c1ccccc1
28 | 264 | Cc1ccc2[nH]c(=O)c(C#N)c(Cl)c2c1
29 | 108 to 112 | CN1C(=O)CC[C@]2(C)c3ccc(-c4ccc(F)cc4F)cc3CC[C@@H]12
30 | 126 to 127 | O=C(Oc1ccccc1Br)c1cc(I)c[nH]1
31 | 121 to 123 | O=C1Nc2ccccc2Nc2ccccc21
32 | 234 to 236 | O=C(O)c1ccnc(NC(=O)C(CS)Cc2ccccc2)c1 (configuration not stated)
33 | 151 to 152 | COc1ccc(-c2c(C(=O)c3ccccc3)c(C)nc3cc(OC)c(OC)cc23)cc1OC
34 | 146 to 147 | COc1ccc(C(O)(c2ccc(OC)cc2)[C@@H](N)C2CCCCC2)cc1
35 | 187 to 189 | CS(=O)(=O)Nc1ccc([N+](=O)[O-])nc1
36 | 262 to 265 | O=C1C2CCCN2c2ncccc2N1Cc1ccncc1 (configuration not stated)
37 | 105 | Cc1ccc(CN(O)C(N)=O)o1
38 | 293 to 295 | O=C(Nc1ccccc1)N1CCc2[nH]cc3c(=O)n(-c4ccc(Cl)cc4)nc-3c2C1
39 | 210 to 213 | CC(=O)SCCCn1cc(C2=C(c3cn(C)c4ccccc34)C(=O)NC2=O)c2ccccc21
40 | 195 to 197 | O=[N+]([O-])c1cccc2c1S(=O)(=O)C=C2
41 | 185 to 186 | CCCN(CCC)[C@H]1Cc2c[nH]c3ccc(-c4cccnc4)c(c23)C1
42 | 68 to 70 | O=C1OCCC1=Cc1ccccc1OCC1CO1 (configuration not stated)
43 | 186 to 189 | CC(=O)c1c(C)c(NC(=O)OCC(Cl)(Cl)Cl)c(C)c2c1OCC2c1ccc(C(C)C)cc1 (configuration not stated)
44 | 146 to 150 | CNCC(O)COc1cc(-c2ccc(C)cc2)nc2cc(C)ccc12 (racemic)
45 | 82 to 85 | CCCc1c(OCCCSc2ccc(CC(=O)OC)c(Cl)c2Cl)ccc(C(C)=O)c1O
46 | 77 to 81 | CCCn1c(-c2ccc(-n3ccnc3)cc2)cnc1[C@H](Cc1ccccn1)N(C=O)c1cc2cc(F)ccc2o1
47 | 159 to 160 | Cc1nc(C)c(-c2ccnc(Nc3ccc(N4CCCCC4)c(C)c3)n2)s1
48 | 124 | C#CCC(O)(Cn1cncn1)c1ccc(Oc2ccc(Cl)cc2)cc1Cl (configuration not stated)
49 | 103 to 104 | C=CC(=O)NC(C)c1ccc(Cl)cc1 (configuration not stated)
50 | 191 to 193 | CC(=O)N1CCCN(CC2=Nc3cccc4c(=O)[nH]nc(c34)N2)CC1

Row | melting point [°C] | Structure (SMILES)
51 | 152 to 155 | O=C(c1ccccc1)c1cc(Cc2ccccc2)c(O)c2ccccc12
52 | 120 | COc1ccc2ccc(OC)c3c2c1CCC3CCNC(=O)C1CC1 (configuration not stated)
53 | 173 to 174 | O=C(O)/C=C/c1c(C2CC2)nc2ccccc2c1-c1ccc(F)cc1
54 | 57 to 59 | CCOC(=O)c1ccc(-c2ccc(C=O)cc2)cc1
55 | 267 to 270 | COc1cc2sc(C(=O)O)cc2c(Cl)c1OC
56 | 107 | CCCCN1C(=O)NC(Cc2ccc(C)s2)C1=O (configuration not stated)
57 | 137 to 139 | CSc1nn2c(N3CCNCC3)cc(C)nc2c1S(=O)(=O)c1ccccc1
58 | 91 to 93 | COC(=O)Cn1c(C(=O)OCc2ccccc2)cc2cc(C)cc(C)c21
59 | 108 to 110 | COc1c(S(=O)(=O)NCc2ccc(Cl)cc2)cc(Br)c2ccc(C)nc12
60 | 165 to 166 | CC1(C)OC(=O)C(Oc2cccc(N)n2)=C1c1ccc(S(C)(=O)=O)cc1
61 | 117 to 119 | CCCc1c(OCC(O)COc2cccc(NC(=O)c3nnn[nH]3)c2C#N)ccc(C(C)=O)c1O (configuration not stated)
62 | 96 to 97 | CCC(=O)c1ccc2c(c1)C(C(Cl)(Cl)Cl)OC(C(Cl)(Cl)Cl)O2 (configuration not stated)
63 | 82 to 84 | COC(=O)CC(=O)c1cc(C(=O)OC)cc(-n2cccc2)c1
64 | 145 to 146 | CC(C)=CCc1cc(-c2oc3c(CC=C(C)C)c(O)cc(O)c3c(=O)c2O)ccc1O
65 | 167 to 168 | COc1ccc(C(=O)Nc2ccc(OCCCl)cc2)c(N)c1
66 | > 250 | C[C@H](c1ccccc1)n1c(O)nc2c(N)nc3ccccc3c21
67 | 110 to 111 | CCOCN1C(C)=C(C(C)=O)C(c2cccc([N+](=O)[O-])c2)C(C(=O)OCC)=C1C (configuration not stated)
68 | 140 to 141 | Cn1ccc2cc(C(=O)NN)ccc21
69 | 201 to 202 | COc1ccc(OC)c2c(=O)c3ccccc3sc12
70 | 163 to 165 | CCC(Oc1ccc(C(C)(C)CC(C)(C)C)cc1)C(=O)Nc1ccc(Cl)c(Nc2cc(=O)n(-c3c(Cl)cc(Cl)cc3Cl)[nH]2)c1 (configuration not stated)
71 | 158 to 160 | Cc1cccc2ncc(C(=O)NC3CCCC3)c(=O)n12
72 | 43 to 48 | CC(c1ccccc1)c1cccnn1 (configuration not stated)
73 | 112 | CCCCCc1ccc(CC(=O)c2ccc(O)cc2)cc1
74 | 153 to 155 | COc1cc(C)nc(NC(=O)NS(=O)(=O)c2ccccc2C(O)CF)n1 (configuration not stated)
75 | 159 to 160 | CCOc1cccc(C2C(C(=O)OC)=C(C)NC(C)=C2C(=O)OC)c1OCC(=O)NCCO[N+](=O)[O-]

Row | melting point [°C] | Structure (SMILES)
76 | 106 to 108 | CCCCCCc1ccc(C=CC(=O)c2ccc(OCC=C(C)C)cc2OCC(=O)O)cc1
77 | 232 to 234 | NC(=O)c1sc2nccc(N3CCOCC3)c2c1N
78 | 42.5 to 43 | CCCCCCCCCCCCCCCNC(=O)OCC(CO)OC (configuration not stated)
79 | 282 to 286 | O=C1Nc2ccc(F)cc2C1c1ncnc2c1cnn2C1CCCCC1 (configuration not stated)
80 | 131 | CNC(=O)c1cccc(NC(=O)CCc2ccccc2C)c1
81 | 165 to 168 | O=C(c1ccc(Br)cc1Cl)c1cccc2c1Nc1ncccc1CN2
82 | 149 | O=C(c1ccccc1)c1cc([N+](=O)[O-])ccc1N(Cc1ccccc1)C(=O)CBr
83 | 130 to 131 | CCOC(=O)O[C@H](CCCc1ccc(OCc2nc(-c3ccccc3)sc2C)cc1)C(N)=O
84 | 120 | O=C(Cc1ccc(I)cc1)NC[C@H]1CCCN1
85 | 173 to 175 | Clc1cccc(-c2cn3c(n2)sc2ccccc23)c1
86 | 92 to 93 | O=C1OC(Cc2ccc([N+](=O)[O-])cc2)C(=O)N1Cc1ccccc1 (configuration not stated)
87 | 106 to 108 | CCOC(=O)Cc1ccc(-c2nc(COc3ccc(COc4nn(-c5ccccc5)cc4/C=C/c4coc(C(C)C)n4)cc3OC)c(C)o2)cc1
88 | 205 to 206 | Cc1cccc(Nc2ncnc3ccc(N)cc23)c1
89 | 209 to 212 | CC(=O)Oc1cccc(C(=O)Nc2nc(S(C)(=O)=O)cs2)c1
90 | 172 | Cc1cc(NC(=O)c2ccn3c2CSC3c2cccnc2)c2ccccc2c1 (configuration not stated)
91 | 156 to 158 | CC(C#Cc1ccc(F)cc1)N(O)C(N)=O (configuration not stated)
92 | 100 to 103 | CCCc1c(OCC(O)COc2ccc(C(=O)O)cc2Cl)ccc(C(C)=O)c1O (configuration not stated)
93 | 156 to 162 | CCOC(=O)c1ccc(NC(=O)Oc2ccccc2)cc1
94 | 65 to 66 | CCCCCCCCCC(O)C#CC(=O)O (configuration not stated)
95 | 93 to 94 | C=CCc1cc2c(c(CC=C)c1OC1CCCCO1)CCC(=O)N2CCC#N (configuration not stated)
96 | 129 to 130 | CC[C@H](C)[C@H](Nc1nc(OC)ns1)C(=O)N1CCC[C@H]1C(=O)OC
97 | 94 to 97 | O=C1NC2C3C=CC(C3)C12 (configuration not stated)
98 | 91.7 | COc1ccc(Sc2ccc(C=[N+]([O-])C(C)(C)C)o2)cc1
99 | 225 to 227 | CC1(Cn2nc(-c3ccccc3)oc2=O)Cn2cc([N+](=O)[O-])nc2O1 (configuration not stated)

Row | Structure (SMILES) | melting point [°C]
100 | O=c1c2ccccc2nnn1CCN1CC=C(c2c[nH]c3ccccc23)CC1 | 230
101 | CCOC(=O)c1nnc2n1-c1ccccc1C(c1ccccc1)=NC2 | 205 to 206
102 | CN1Cc2c(C(N)=O)ncn2-c2ccccc2C1=O | 274 to 275
